Experimental findings from ChEMBL document CHEMBL1909046, “DrugMatrix in vitro pharmacology data” are described below.

For assay [1], the target named is T1, 5-hydroxytryptamine receptor 1A (Rattus norvegicus, UniProt P19327). Note: in other assays of this panel Not Active means under 50% inhibition at 10 µM.
T1 sequence (P19327 whole entry): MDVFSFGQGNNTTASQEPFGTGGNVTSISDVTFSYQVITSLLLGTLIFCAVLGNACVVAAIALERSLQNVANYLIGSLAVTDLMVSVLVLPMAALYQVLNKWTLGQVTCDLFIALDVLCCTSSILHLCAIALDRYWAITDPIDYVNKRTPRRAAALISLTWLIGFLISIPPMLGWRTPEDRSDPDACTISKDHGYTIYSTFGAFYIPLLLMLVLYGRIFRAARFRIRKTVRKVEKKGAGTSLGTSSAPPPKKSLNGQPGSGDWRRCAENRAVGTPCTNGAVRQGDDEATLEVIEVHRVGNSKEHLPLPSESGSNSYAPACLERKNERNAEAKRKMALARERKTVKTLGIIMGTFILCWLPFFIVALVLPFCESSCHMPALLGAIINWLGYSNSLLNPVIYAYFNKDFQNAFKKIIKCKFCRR
The class given is cell membranes, CHO-K1, Membrane. The settings on record: for pKi: read-out: Ki; for IC50: cho-k1.

For assay [2], the target named is Mitogen-activated protein kinase 3 (Homo sapiens, UniProt P27361). Put plainly: DRUGMATRIX: Protein Serine/Threonine Kinase, ERK1 enzyme inhibition (substrate: Myelin Basic Protein). Set-up: species or system Escherichia coli. The settings on record: Not Active = under 50% inhibition at 10 µM.
Mitogen-activated protein kinase 3, sequence (P27361 whole entry): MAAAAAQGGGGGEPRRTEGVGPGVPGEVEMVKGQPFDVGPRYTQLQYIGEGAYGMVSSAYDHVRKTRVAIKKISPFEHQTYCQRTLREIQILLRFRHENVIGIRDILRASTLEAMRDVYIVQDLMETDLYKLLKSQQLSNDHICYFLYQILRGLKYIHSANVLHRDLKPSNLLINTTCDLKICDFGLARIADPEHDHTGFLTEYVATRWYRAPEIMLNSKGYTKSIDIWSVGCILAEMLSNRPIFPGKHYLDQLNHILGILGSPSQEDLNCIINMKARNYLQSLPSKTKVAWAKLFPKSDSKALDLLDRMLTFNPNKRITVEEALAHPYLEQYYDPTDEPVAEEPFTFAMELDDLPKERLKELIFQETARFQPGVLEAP
Assay [3] concerns the target T2, 3-hydroxy-3-methylglutaryl-coenzyme A reductase (Homo sapiens, UniProt P04035).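 Note: enzyme inhibition assay of HMG-CoA reductase using radiolabeled [14C]HMG-CoA as substrate; in other assays of this panel Not Active means under 50% inhibition at 10 µM.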
T2 sequence (P04035 whole entry): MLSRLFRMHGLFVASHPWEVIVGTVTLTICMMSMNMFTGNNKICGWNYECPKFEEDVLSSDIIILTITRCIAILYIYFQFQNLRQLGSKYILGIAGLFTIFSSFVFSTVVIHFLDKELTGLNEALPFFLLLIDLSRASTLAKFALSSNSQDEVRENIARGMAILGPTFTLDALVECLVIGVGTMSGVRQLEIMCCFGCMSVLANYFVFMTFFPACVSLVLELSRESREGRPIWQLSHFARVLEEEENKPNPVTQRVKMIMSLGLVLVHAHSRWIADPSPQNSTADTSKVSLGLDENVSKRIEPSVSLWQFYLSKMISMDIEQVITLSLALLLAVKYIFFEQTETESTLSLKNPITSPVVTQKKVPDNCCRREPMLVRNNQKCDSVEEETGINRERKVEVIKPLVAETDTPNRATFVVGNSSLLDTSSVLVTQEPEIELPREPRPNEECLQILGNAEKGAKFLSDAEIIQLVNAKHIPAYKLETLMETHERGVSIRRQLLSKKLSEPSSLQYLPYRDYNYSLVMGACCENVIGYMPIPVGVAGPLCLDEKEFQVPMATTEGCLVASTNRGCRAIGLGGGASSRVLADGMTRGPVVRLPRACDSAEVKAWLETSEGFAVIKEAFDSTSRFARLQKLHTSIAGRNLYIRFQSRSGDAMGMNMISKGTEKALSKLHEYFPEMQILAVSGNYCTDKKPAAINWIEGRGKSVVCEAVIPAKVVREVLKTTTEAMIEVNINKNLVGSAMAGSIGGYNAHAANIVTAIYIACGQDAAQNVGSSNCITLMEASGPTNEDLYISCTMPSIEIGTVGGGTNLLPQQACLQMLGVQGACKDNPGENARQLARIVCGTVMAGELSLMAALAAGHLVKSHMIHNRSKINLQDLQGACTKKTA
Further details: species or system Escherichia coli.

The nature of assay [4]: DRUGMATRIX: Glutamate, AMPA radioligand binding (ligand: [3H] AMPA). The following applies: Not Active = under 50% inhibition at 10 µM. The class given is cell membranes, Rattus norvegicus, Wistar, Cerebral cortex, Membrane.
The nature of assay [5]: DRUGMATRIX: Phosphodiesterase PDE4 enzyme inhibition (substrate: [3H]cAMP + cAMP). The settings on record: u-937; Not Active = under 50% inhibition at 10 µM.
Assay [6] in a line: DRUGMATRIX: Sodium/nucleoside co-transporter radioligand binding (ligand: nitrobenzylthioinosine). The class given is cell membranes, Cavia porcellus, Dunkin-Hartley, Cerebral cortex, Membrane. The settings on record: Not Active = under 50% inhibition at 10 µM.
The target of assay [7] is T3, Nitric oxide synthase, inducible (Mus musculus, UniProt P29477).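 Note: inhibition of iNOS enzyme activity measured with L-arginine as substrate; in other assays of this panel Not Active means under 50% inhibition at 10 µM.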
T3 sequence (P29477 whole entry): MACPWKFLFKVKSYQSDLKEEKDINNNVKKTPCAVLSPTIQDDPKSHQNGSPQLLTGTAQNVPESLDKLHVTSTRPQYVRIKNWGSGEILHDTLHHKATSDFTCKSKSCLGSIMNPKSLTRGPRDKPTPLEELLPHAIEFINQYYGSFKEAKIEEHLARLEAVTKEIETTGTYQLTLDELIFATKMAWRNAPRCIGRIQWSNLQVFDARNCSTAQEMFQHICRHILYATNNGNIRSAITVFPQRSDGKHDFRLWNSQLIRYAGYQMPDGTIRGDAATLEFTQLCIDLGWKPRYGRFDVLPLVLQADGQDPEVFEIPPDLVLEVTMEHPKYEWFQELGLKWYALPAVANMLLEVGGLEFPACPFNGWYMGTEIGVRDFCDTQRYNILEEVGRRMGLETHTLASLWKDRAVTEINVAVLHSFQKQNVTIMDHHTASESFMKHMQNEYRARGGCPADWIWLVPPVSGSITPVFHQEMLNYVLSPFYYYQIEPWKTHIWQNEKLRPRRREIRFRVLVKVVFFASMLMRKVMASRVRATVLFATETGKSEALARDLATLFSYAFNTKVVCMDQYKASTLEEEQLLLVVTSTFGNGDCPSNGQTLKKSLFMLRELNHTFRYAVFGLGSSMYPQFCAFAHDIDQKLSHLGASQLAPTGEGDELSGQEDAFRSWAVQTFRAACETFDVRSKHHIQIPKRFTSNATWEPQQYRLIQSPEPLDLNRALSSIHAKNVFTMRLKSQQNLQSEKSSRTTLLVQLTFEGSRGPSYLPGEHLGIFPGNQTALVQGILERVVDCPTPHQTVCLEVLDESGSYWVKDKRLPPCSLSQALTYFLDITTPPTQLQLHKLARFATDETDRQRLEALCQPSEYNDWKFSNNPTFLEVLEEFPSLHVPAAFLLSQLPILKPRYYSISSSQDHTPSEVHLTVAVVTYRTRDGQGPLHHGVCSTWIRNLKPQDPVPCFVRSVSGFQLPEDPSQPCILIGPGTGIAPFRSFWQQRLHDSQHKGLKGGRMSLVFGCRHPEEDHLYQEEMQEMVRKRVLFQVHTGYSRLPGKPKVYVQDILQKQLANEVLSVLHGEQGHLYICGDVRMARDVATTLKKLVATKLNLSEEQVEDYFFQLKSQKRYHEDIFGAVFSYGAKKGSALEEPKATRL
Set-up: species or system Escherichia coli.

pIC50, pKi: −log10 of the molar value.

`COc1ccc(CCN(C)CCCC(C#N)(c2ccc(OC)c(OC)c2)C(C)C)cc1OC` (stereo not given) showed a negative-log IC50 (pIC50) in assay [1] of 5.52. For the same compound, the negative-log Ki (pKi) in assay [1] is 5.76. The IC50 entry in assay [2], in assay [3], in assay [4], in assay [5], in assay [6] and in assay [7] was “Not Active” in each case. Besides, the Ki result in assay [4], in assay [5] and in assay [6] was “Not Active” in each case.
For `CC(C)Cc1ccc([C@@H](C)C(=O)O)cc1` [(R)-IBUPROPHEN], the IC50 entry in assay [1], in assay [2], in assay [3], in assay [4], in assay [5] and in assay [6] was “Not Active” throughout. The IC50 result in assay [7] was “Not Active”. For the same compound, the Ki result in assay [4], in assay [5] and in assay [6] was “Not Active” throughout.
In the case of `CC(C)NCC(O)c1ccc(O)c(O)c1` (stereo not given) [ISOPROTERENOL], the IC50 entry in assay [1], in assay [2], in assay [3], in assay [4], in assay [5] and in assay [6] was “Not Active” in each case. Besides, the IC50 entry in assay [7] was “Not Active”. Further, the Ki entry in assay [4], in assay [5] and in assay [6] was “Not Active” throughout.
For `NC(=O)N1C(=O)/C(=C(\O)c2cccs2)c2cc(Cl)ccc21` [TENIDAP], the IC50 result in assay [1], in assay [2], in assay [3], in assay [4], in assay [5] and in assay [6] was “Not Active” in each case. In addition, the IC50 entry in assay [7] was “Not Active”. Besides, the Ki result in assay [4], in assay [5] and in assay [6] was “Not Active” each time.
With `NC1CCN(c2nc3c(cc2F)c(=O)c(C(=O)O)cn3-c2ccc(F)cc2F)C1` (stereo not given) [TOSUFLOXACIN], the IC50 entry in assay [1], in assay [2], in assay [3], in assay [4], in assay [5] and in assay [6] was “Not Active” throughout. In addition, the IC50 result in assay [7] is “Not Active”. Besides, the Ki result in assay [4], in assay [5] and in assay [6] was “Not Active” each time.
Take `N#Cc1ccc(C(c2ccc(C#N)cc2)n2cncn2)cc1` [LETROZOLE]: the IC50 entry in assay [1], in assay [2], in assay [3], in assay [4], in assay [5] and in assay [6] was “Not Active” each time. Besides, the IC50 entry in assay [7] is recorded as “Not Active”. The Ki result in assay [4], in assay [5] and in assay [6] was “Not Active” in each case.
In the case of `O=C(Nc1ccc(Br)cc1)c1cc(Br)cc(Br)c1O` [TRIBROMSALAN], the IC50 result in assay [1], in assay [2], in assay [3], in assay [4], in assay [5] and in assay [6] was “Not Active” each time. Besides, the IC50 result in assay [7] is “Not Active”. The Ki result in assay [4], in assay [5] and in assay [6] was “Not Active” throughout.
`O=C1Nc2ccc(Cl)cc2C(c2ccccc2Cl)=NC1O` (stereo not given) [LORAZEPAM]: the IC50 result in assay [1], in assay [2], in assay [3], in assay [4], in assay [5] and in assay [6] was “Not Active” in each case. For the same compound, in assay [7], the IC50 result is reported as “Not Active”. For the same compound, the Ki result in assay [4], in assay [5] and in assay [6] was “Not Active” throughout.
As for `CC(C)Oc1ccc2c(=O)c(-c3ccccc3)coc2c1` [IPRIFLAVONE], the IC50 entry in assay [1], in assay [2], in assay [3], in assay [4], in assay [5] and in assay [6] was “Not Active” throughout. The IC50 entry in assay [7] is reported as “Not Active”. Also, the Ki result in assay [4], in assay [5] and in assay [6] was “Not Active” in each case.
Take `CCN(CC)CCOc1ccc(/C(=C(/Cl)c2ccccc2)c2ccccc2)cc1` [ENCLOMIPHENE]: the IC50 result in assay [1], in assay [2], in assay [3] and in assay [7] was “Not Active” in each case.
In the case of `CN[C@H]1CC[C@@H](c2ccc(Cl)c(Cl)c2)c2ccccc21` [SERTRALINE], the IC50 entry in assay [1], in assay [2], in assay [3] and in assay [7] was “Not Active” throughout.
With `CN(C)CCOC(c1ccccc1)c1ccccc1` [DIPHENHYDRAMINE], the IC50 result in assay [1], in assay [2], in assay [3] and in assay [7] was “Not Active” throughout.
`Fc1ccc(C(c2ccc(F)cc2)N2CCN(C/C=C/c3ccccc3)CC2)cc1` [FLUNARIZINE]: in assay [1] (read-out: IC50), the pIC50 is 5.37. For the same compound, the pKi in assay [1] is 5.61. The IC50 result in assay [2], in assay [3] and in assay [7] was “Not Active” in each case.
Regarding `CNCCC(Oc1ccc(C(F)(F)F)cc1)c1ccccc1` (stereo not given) [FLUOXETINE], the IC50 result in assay [1], in assay [2], in assay [3] and in assay [7] was “Not Active” throughout.
With `Cc1ccc(NC(=O)c2ccc(CN3CCN(C)CC3)cc2)cc1Nc1nccc(-c2cccnc2)n1` [IMATINIB], the IC50 result in assay [1], in assay [3] and in assay [7] was “Not Active” in each case.
Turning to `Clc1ccc(COC(Cn2ccnc2)c2ccc(Cl)cc2Cl)cc1` (stereo not given) [ECONAZOLE], the pIC50 in assay [1] (read-out: IC50) is 4.79. Further, in assay [1], the pKi is 5.03. In addition, the IC50 result in assay [2], in assay [3] and in assay [7] was “Not Active” throughout.
